According to ChEMBL document CHEMBL5260810, “Inhibition of bromodomain-containing protein 9 for the prevention of epigenetically-defined drug resistance” (Bioorg Med Chem Lett, 2017):
Calls of active or inactive are those of the source.

Legend:
[1] = target: T1, Bromodomain-containing protein 9 (Homo sapiens) (UniProt Q9H8M2); assay: Binding affinity to BRD9 in human PC-9 cell lysate assessed as increase in thermal stabilization at 2 uM at 44 to 50 degreeC measured after 30 mins by CETSA; type: subcellular
T1 sequence (whole entry): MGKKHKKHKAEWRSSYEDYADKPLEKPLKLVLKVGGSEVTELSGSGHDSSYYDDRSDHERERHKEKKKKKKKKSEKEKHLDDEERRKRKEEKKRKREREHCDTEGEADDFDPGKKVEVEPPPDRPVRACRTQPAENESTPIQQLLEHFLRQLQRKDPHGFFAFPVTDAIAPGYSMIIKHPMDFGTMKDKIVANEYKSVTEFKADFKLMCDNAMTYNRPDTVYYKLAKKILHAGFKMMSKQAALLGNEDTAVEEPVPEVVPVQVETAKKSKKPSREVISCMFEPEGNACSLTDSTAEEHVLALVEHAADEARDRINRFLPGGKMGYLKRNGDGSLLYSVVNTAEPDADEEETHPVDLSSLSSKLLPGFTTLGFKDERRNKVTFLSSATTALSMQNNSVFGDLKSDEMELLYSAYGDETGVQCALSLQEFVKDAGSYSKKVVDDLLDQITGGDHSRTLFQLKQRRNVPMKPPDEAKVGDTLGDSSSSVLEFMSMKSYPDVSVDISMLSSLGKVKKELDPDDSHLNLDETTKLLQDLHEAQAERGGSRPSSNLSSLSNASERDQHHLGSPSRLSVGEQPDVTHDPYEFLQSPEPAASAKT

PC-9 [2] = assay: Cytotoxicity against human PC-9 cells assessed as reduction in drug tolerant population at 2 uM supplemented with fresh medium containing compound every 3 days for 9 days in presence of erlotinib by Beckman Coulter counting method relative to control; type: functional; design: scale not given: the % may be the effect or the level left; details: time 9 day
Daudi = assay: Cytotoxicity against human Daudi cells measured after 3 days; type: functional, cell-based; details: 72 h
[3] = Cytotoxicity against human KMS-27 cells measured after 3 days; type: functional, cell-based; details: KMS-27, 72 h
SKM-1 = assay: Cytotoxicity against human SKM-1 cells measured after 3 days; type: functional, cell-based; details: SKM-1, 72 h
AMO1 = assay: Cytotoxicity against human AMO1 cells measured after 3 days; type: functional, cell-based; details: AMO1, 72 h
EB2 = assay: Cytotoxicity against human EB2 cells measured after 3 days; type: functional, cell-based; details: EB2, 72 h
786-0 = assay: Cytotoxicity against human 786-0 cells measured after 3 days; type: functional, cell-based; details: 786-0, 72 h
HLE = assay: Cytotoxicity against human HLE cells measured after 3 days; type: functional, cell-based; details: 72 h
[4] = Cytotoxicity against human JHH-1 cells measured after 3 days; type: functional, cell-based; details: JHH1, 72 h
SNU-387 = assay: Cytotoxicity against human SNU-387 cells measured after 3 days; type: functional, cell-based; details: SNU-387, 72 h
SNU-475 = assay: Cytotoxicity against human SNU-475 cells measured after 3 days; type: functional, cell-based; details: SNU-475, 72 h
NCI-H2170 = assay: Cytotoxicity against human NCI-H2170 cells measured after 3 days; type: functional, cell-based; details: NCI-H2170, 72 h
NCI-H520 = assay: Cytotoxicity against human NCI-H520 cells measured after 3 days; type: functional, cell-based; details: NCI-H520, 72 h
[5] = Cytotoxicity against human MOLP8 cells measured after 3 days; type: functional, cell-based; details: MOLP-8, 72 h
OCI-AML2 = assay: Cytotoxicity against human OCI-AML2 cells measured after 3 days; type: functional, cell-based; details: OCI-AML2, 72 h
SUP-B15 = assay: Cytotoxicity against human SUP-B15 cells measured after 3 days; type: functional, cell-based; details: SUP-B15, 72 h
KMS-11 = assay: Cytotoxicity against human KMS-11 cells measured after 3 days; type: functional, cell-based; details: KMS-11, 72 h
[6] = Cytotoxicity against human NCE-G 22 cells measured after 3 days; type: functional, cell-based; details: NCE-G 22, 72 h
[7] = Cytotoxicity against human EB1 cells measured after 3 days; type: functional, cell-based; details: EB1, 72 h
Granta-519 = assay: Cytotoxicity against human Granta-519 cells measured after 3 days; type: functional, cell-based; details: Granta-519, 72 h
HT = assay: Cytotoxicity against human HT cells measured after 3 days; type: functional, cell-based; details: 72 h
MHH-PREB-1 = assay: Cytotoxicity against human MHH-PREB-1 cells measured after 3 days; type: functional, cell-based; details: MHH-PREB-1, 72 h
SU-DHL-1 = assay: Cytotoxicity against human SU-DHL-1 cells measured after 3 days; type: functional, cell-based; details: SU-DHL-1, 72 h
SU-DHL-6 = assay: Cytotoxicity against human SU-DHL-6 cells measured after 3 days; type: functional, cell-based; details: SU-DHL-6, 72 h
HEY = assay: Cytotoxicity against human HEY cells measured after 3 days; type: functional, cell-based; details: 72 h
[8] = Cytotoxicity against human SW527 cells measured after 3 days; type: functional, cell-based; details: SW527, 72 h
[9] = Cytotoxicity against human VP267 cells measured after 3 days; type: functional, cell-based; details: VP267, 72 h
[10] = Cytotoxicity against human HCC1428 cells measured after 3 days; type: functional, cell-based; details: HCC1428, 72 h
[11] = Cytotoxicity against human EFM-192A cells measured after 3 days; type: functional, cell-based; details: 72 h
HCC1395 = assay: Cytotoxicity against human HCC1395 cells measured after 3 days; type: functional, cell-based; details: HCC1395, 72 h
[12] = Cytotoxicity against human OVCA432 cells measured after 3 days; type: functional, cell-based; details: OVCA432, 72 h
TOV21G = assay: Cytotoxicity against human TOV-21G cells measured after 3 days; type: functional, cell-based; details: 72 h
[13] = Cytotoxicity against human TYK-nu.CP-r cells measured after 3 days; type: functional, cell-based; details: 72 h
[14] = Cytotoxicity against human NTERA-2 cells after 8 days; type: functional, cell-based; details: NTERA2, 192 h
HCC2935 = assay: Cytotoxicity against human HCC2935 cells after 8 days; type: functional, cell-based; details: HCC2935, 192 h
[15] = Cytotoxicity against human HCC1428 cells measured after 8 days; type: functional, cell-based; details: HCC1428, 192 h
[16] = Cytotoxicity against human NCI-H2073 cells measured after 8 days; type: functional, cell-based; details: NCI-H2073, 192 h
HMEC = assay: Cytotoxicity against HMEC cells measured after 8 days; type: functional, cell-based; details: Homo sapiens, 192 h
TERT-RPE1 = assay: Cytotoxicity against hTERT-RPE1 cells measured after 8 days; type: functional, cell-based; details: Homo sapiens, RPE-1, 192 h
PC-9 [17] = assay: Antiproliferative activity against human PC-9 cells assessed as reduction in colony formation upto 20 uM supplemented with fresh medium containing compound every 3 days for 9 days by MTT staining based clonogenic assay; type: functional, cell-based; details: time 9.0 day
MIA PaCa-2 = assay: Antiproliferative activity against human MIA PaCa-2 cells assessed as reduction in colony formation up to 20 uM supplemented with fresh medium containing compound every 3 days for 9 days by MTT staining based clonogenic assay; type: functional, cell-based; details: time 9.0 day
HCC1954 = assay: Antiproliferative activity against human HCC1954 cells assessed as reduction in colony formation upto 20 uM supplemented with fresh medium containing compound every 3 days for 9 days by MTT staining based clonogenic assay; type: functional, cell-based; details: time 9.0 day
BT-549 = assay: Antiproliferative activity against human BT-549 cells assessed as reduction in colony formation up to 20 uM supplemented with fresh medium containing compound every 3 days for 9 days by MTT staining based clonogenic assay; type: functional, cell-based; details: time 9.0 day
REH = assay: Cytotoxicity against human REH cells measured after 8 days; type: functional, cell-based; details: 192 h

C/C=C/Cn1cc(-c2cc(OC)c(C(=O)N3CCOCC3)cc2OC)c2cc(C)[nH]c2c1=O
active: Activity [1]
>60%: Activity (PC-9 [2])
5 µM: IC50 (Daudi) | IC50 [3] | IC50 (SKM-1) | IC50 (AMO1) | IC50 (EB2) | IC50 (786-0) | IC50 (HLE) | IC50 [4] | IC50 (SNU-387) | IC50 (SNU-475) | IC50 (NCI-H2170) | IC50 (NCI-H520) | IC50 [5] | IC50 (OCI-AML2) | IC50 (SUP-B15) | IC50 (KMS-11) | IC50 [6] | IC50 [7] | IC50 (Granta-519) | IC50 (HT) | IC50 (MHH-PREB-1) | IC50 (SU-DHL-1) | IC50 (SU-DHL-6) | IC50 (HEY) | IC50 [8] | IC50 [9] | IC50 [10] | IC50 [11] | IC50 (HCC1395) | IC50 [12] | IC50 (TOV21G) | IC50 [13]
2 µM: IC50 [14] | IC50 (HCC2935) | IC50 [15] | IC50 [16] | IC50 (HMEC) | IC50 (TERT-RPE1)

C/C=C/Cn1cc(-c2ccc(C(C)(C)O)cc2OC)c2cc[nH]c2c1=O
active: Activity (PC-9 [17]) | Activity (HCC1954)
20 µM: IC50 (REH)
inactive: Activity (MIA PaCa-2) | Activity (BT-549)
